PMC9080520 (RSC Advances, 2018)

assay: Antioxidant assay: DPPH radical-scavenging activity; settings: read-out: Antioxidant activity IC50 (DPPH); DPPH method

Compound	IC50
C[C@@H]1O[C@@H](O[C@H]2[C@H](Oc3c(-c4ccc(O)cc4)oc4cc(O)cc(O)c4c3=O)O[C@H](CO[C@@H]3O[C@H](CO)[C@@H](O)[C@H](O)[C@H]3O)[C@@H](O)[C@@H]2O)[C@H](O)[C@H](O)[C@H]1O [Compound 2, kaempferol-3-O-β-D-glucopyranosyl-(1 → 6)-[α-L-rhamnopyranosyl-(1 → 2)]-β-D-glucopyranoside]	170 ± 5.2 µM
C[C@@H]1O[C@@H](OC[C@H]2O[C@@H](Oc3c(-c4ccc(O)cc4)oc4cc(O)cc(O)c4c3=O)[C@H](O[C@@H]3O[C@H](CO)[C@@H](O)[C@H](O)[C@H]3O)[C@@H](O)[C@@H]2O)[C@H](O)[C@H](O)[C@H]1O [Compound 4, kaempferol-3-O-β-D-glucopyranosyl-(1 → 2)-[α-L-rhamnopyranosyl-(1 → 6)]-β-D-glucopyranoside]	257 ± 19.9 µM
O=c1c(O[C@@H]2O[C@H](CO)[C@@H](O)[C@H](O)[C@H]2O)c(-c2ccc(O)cc2)oc2cc(O[C@@H]3O[C@H](CO)[C@@H](O)[C@H](O)[C@H]3O)cc(O)c12 [Compound 8, kaempferol-3,7-di-O-β-D-glucopyranoside]	407 ± 22.1 µM
C[C@@H]1O[C@@H](OC[C@H]2O[C@@H](O[C@H]3[C@H](Oc4c(-c5ccc(O)cc5)oc5cc(O)cc(O)c5c4=O)O[C@H](CO)[C@@H](O)[C@@H]3O)[C@H](O)[C@@H](O)[C@@H]2O)[C@H](O)[C@H](O)[C@H]1O [Compound 10, kaempferol-3-O-α-L-rhamnopyranosyl-(1 → 6)-β-D-glucopyranosyl-(1 → 2)-β-D-glucopyranoside]	209 ± 7.3 µM
kaempferol-3-O-rutinoside [Compound 11]	129 ± 9.2 µM

Stronger by IC50, values ahead:

IC50	Compound
36.3 ± 1.1 µM	O=c1c(O)c(-c2ccc(O)cc2)oc2cc(O)cc(O)c12 [Compound 5, kaempferol]
100 ± 3.2 µM	O=c1c(O[C@@H]2O[C@H](CO)[C@@H](O)[C@H](O)[C@H]2O)c(-c2ccc(O)cc2)oc2cc(O)cc(O)c12 [Compound 6, astragalin]
77.6 ± 2.4 µM	O=c1c(O)c(-c2ccc(O)cc2)oc2cc(O[C@@H]3O[C@H](CO)[C@@H](O)[C@H](O)[C@H]3O)cc(O)c12 [Compound 7, kaempferol-7-O-β-D-glucopyranoside]
33.9 ± 1.1 µM	O=C1O[C@H]([C@@H](O)CO)C(O)=C1O [V c, L-ascorbic acid, reference compound]
